# Target: T1, HSD17B13 enzyme (Homo sapiens, UniProt Q7Z5P4)
# T1 construct: His; made in house; host or cells: E. coli
# T1 sequence (Q7Z5P4 20-300): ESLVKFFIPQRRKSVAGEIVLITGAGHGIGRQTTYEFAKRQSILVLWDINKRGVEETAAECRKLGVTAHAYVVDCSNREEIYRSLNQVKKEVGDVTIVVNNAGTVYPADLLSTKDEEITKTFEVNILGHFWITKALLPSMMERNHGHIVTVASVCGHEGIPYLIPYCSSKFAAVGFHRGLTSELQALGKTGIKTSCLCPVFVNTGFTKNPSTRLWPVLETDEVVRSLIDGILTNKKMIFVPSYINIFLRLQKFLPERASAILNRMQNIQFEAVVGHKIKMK
# Assay: NADH detection assay (fluorescence based LTB3 assay) for HSD17B13 activity
# Format: biochemical
# Conditions: substrate 25 μM LTB3, 3 mM NAD+, 125 nM HSD17B13 enzyme, 1 hour at 26.5° C.
# Protocol: Example A: NADH Detection Assay for Evaluation of HSD17ß13 Activity and Identification of Inhibitors
# The fluorescence based Leukotriene B3 (LTB3) assay monitors the fluorescence of NADH, which is generated from NAD+ during the dehydrogenation of the substrate LTB3. The reactions were performed in a 384-well plates (Greiner; #655076) in a 20 μl reaction volume containing the following reagents (final concentrations): 25 μM LTB3 (Cayman; #20109); 3 mM NAD+ (Sigma; #N0623); 125 nM HSD17B13 enzyme (in-house; E. coli expressed His-tagged, purified, soluble protein); […] potassium phosphate buffer, pH 7.4; and 1% DMSO. Reactions were initiated by co-addition of NAD+ and enzyme, and monitored for 1 hour at 26.5° C. Generation of NADH was measured as the fluorescence signal (Excitation at 340 nm and Emission at 445 nm) at 1 hour minus the baseline fluorescence at t=0. Fluorescence signals in the absence of LTB3 (negative control values), were subtracted from all values so that the results reflected substrate-dependent production of NADH. NADH standards were included to allow the conversion of relative fluorescence units into rates of enzyme activity. Enzyme activity in the presence of test compounds was expressed as a percentage of the uninhibited enzyme activity, and plotted versus inhibitor concentration. Non-linear regression was performed using a four-parameter logistic model and GraphPad Prism software (GraphPad Software, La Jolla, CA). Ten concentrations of inhibitor were tested (in the range of 30 μM-2.5 nM), and two independent assessments were performed at each concentration.
row,SMILES,IC50
1,"COc1cccc(F)c1-c1cccc(Oc2ccc(F)c(O)c2)n1 [Example 74, 2-fluoro-5-((6-(2-fluoro-6-methoxyphenyl)pyridin-2-yl)oxy)phenol]",> 30 µM
2,"CS(=O)(=O)NCc1cccc(Oc2cccc(-c3cccc(O)c3F)n2)c1 [Example 94, N-[(3-{[6-(2-fluoro-3-hydroxyphenyl)pyridin-2-yl]oxy}phenyl)methyl]methane-sulfonamide]",> 30 µM
3,"COc1cccc(-c2cccc(Oc3ccc(O)nc3)n2)c1F [Example 108, 5-{[6-(2-fluoro-3-methoxyphenyl)pyridin-2-yl]oxy}-1,2-dihydropyridin-2-one]",> 30 µM
4,"COc1cccc(-c2cccc(Oc3ccc(F)c(NC(C)=O)c3)n2)c1F [Example 107, N-(2-fluoro-5-{[6-(2-fluoro-3-methoxyphenyl)pyridin-2-yl]oxy}phenyl)acetamide]",> 30 µM
5,"CS(=O)(=O)Nc1cc(Oc2cccc(-c3cccc(O)c3F)n2)ccc1F [Example 57, N-(2-fluoro-5-{[6-(2-fluoro-3-hydroxyphenyl)pyridin-2-yl]oxy}phenyl)methane-sulfonamide]",> 30 µM
6,"Oc1cccc(-c2cccc(Oc3ccc4c(c3)NCCO4)n2)c1F [Example 56, 3-[6-(3,4-dihydro-2H-1,4-benzoxazin-6-yloxy)pyridin-2-yl]-2-fluorophenol]",> 30 µM
7,"Oc1cc(Oc2cccc(-c3cccc(F)c3O)n2)ccc1F [Example 38, 2-fluoro-5-((6-(3-fluoro-2-hydroxyphenyl)pyridin-2-yl)oxy)phenol]",> 30 µM
8,"N#Cc1cccc(-c2cccc(Oc3ccc(F)c(O)c3)n2)c1 [Example 104, 3-(6-(4-fluoro-3-hydroxyphenoxy)pyridin-2-yl)benzonitrile]",10 to 30 µM
9,"COc1ccccc1-c1cccc(Oc2ccc(F)c(O)c2)n1 [Example 99, 2-fluoro-5-((6-(2-methoxyphenyl)pyridin-2-yl)oxy)phenol]",10 to 30 µM
10,"COc1cc(Oc2ccnc(-c3cccc(O)c3F)n2)ccc1F [Example 16, 2-fluoro-3-[4-(4-fluoro-3-methoxyphenoxy)pyrimidin-2-yl]phenol]",> 30 µM
11,"O=S(=O)(c1cccc(-c2cccc(Oc3ccc(F)c(O)c3)n2)c1)N1CCNCC1 [Example 48, 2-fluoro-5-((6-(3-(piperazin-1-ylsulfonyl)phenyl)pyridin-2-yl)oxy) phenol]",> 30 µM
12,"COc1cccc(-c2cccc(Oc3ccc4c(c3)NC(=O)C4)n2)c1F [Example 6, 6-{[6-(2-fluoro-3-methoxyphenyl)pyridin-2-yl]oxy}-2,3-dihydro-1H-indol-2-one]",> 30 µM

# The remaining lines, values ahead:
row,IC50,SMILES
1,10 to 30 µM,"O=S(=O)(Nc1cccc(-c2cccc(Oc3ccc(F)c(O)c3)n2)c1)C1CC1 [Example 113, N-(3-(6-(4-fluoro-3-hydroxyphenoxy)pyridin-2-yl)phenyl) cyclopropanesulfonamide]"
2,≤ 5 µM,"O=S(=O)(c1cccc(-c2cccc(Oc3ccc(F)c(O)c3)n2)c1)N1CCOCC1 [Example 44, 2-fluoro-5-((6-(3-(morpholinosulfonyl)phenyl)pyridin-2-yl)oxy)phenol]"
3,≤ 5 µM,"CC(=O)N1CCOc2cc(-c3cccc(Oc4ccc(F)c(O)c4)n3)ccc21 [Example 46, 1-{7-[6-(4-fluoro-3-hydroxyphenoxy)pyridin-2-yl]-3,4-dihydro-2H-1,4-benzoxazin-4-yl}ethan-1-one]"
4,≤ 5 µM,"Oc1cc(Oc2cccc(-c3ccc(Cl)cc3)n2)ccc1F [Example 82, 5-{[6-(4-chlorophenyl)pyridin-2-yl]oxy}-2-fluorophenol]"
5,10 to 30 µM,"NS(=O)(=O)c1ccc(-c2cccc(Oc3ccc(F)c(O)c3)n2)cc1 [Example 76, 4-(6-(4-fluoro-3-hydroxyphenoxy)pyridin-2-yl)benzene sulfonamide]"
6,≤ 5 µM,"Oc1cc(Oc2cccc(-c3ccc(O)c(OCc4ccccc4)c3)n2)ccc1F [Example 28, 2-(benzyloxy)-4-[6-(4-fluoro-3-hydroxyphenoxy)pyridin-2-yl] phenol]"
7,5 to 10 µM,"Oc1cc(Oc2cccc(-c3ccc4cn[nH]c4c3)n2)ccc1F [Example 3, 5-((6-(1H-indazol-6-yl)pyridin-2-yl)oxy)-2-fluorophenol]"

# Source: US12643858B2 (Inipharm, Inc., priority 2020, dated 2026)
